Tests used:
[1] = (§1) The drug is tested on WLS-240 corresponding to human gut metagenome with ENA study accession number: PRJEB37062 and ENA sample accession number: ERS12561773 for biotransformation under anaerobic condition. The drug concentrations were measured over 9 timepoints collected between 0 and 24 hours of incubation by liquid-chromatography-coupled mass spectrometry (LC–MS); conditions: 2 µM
[2] = human gut metagenome, 24 h, 2 µM
[3] = as §1, with “WLS-010” for “WLS-240”, “ERS12561743” for “ERS12561773”; conditions: 2 µM
[4] = human gut metagenome, 24 h, 2 µM; remark: listed apart in the source
[5] = human gut metagenome, 24 h, 2 µM; remark: listed apart in the source
[6] = as §1, with “Z-010” for “WLS-240”, “to” for “to human gut”, “ERS12561810” for “ERS12561773”; conditions: 2 µM
[7] = as §1, with “WLS-007” for “WLS-240”, “ERS12561742” for “ERS12561773”; conditions: 2 µM
[8] = as §1, with “WLS-350” for “WLS-240”, “ERS12561789” for “ERS12561773”; conditions: 2 µM
[9] = as §1, with “Z-025” for “WLS-240”, “rabbit” for “human”, “ERS12561824” for “ERS12561773”; conditions: 2 µM
[10] = human gut metagenome, 24 h, 2 µM; remark: listed apart in the source
[11] = as §1, with “WLS-082” for “WLS-240”, “ERS12561751” for “ERS12561773”; conditions: 2 µM
[12] = human gut metagenome, 24 h, 2 µM; remark: listed apart in the source
[13] = human gut metagenome, 24 h, 2 µM; remark: listed apart in the source
[14] = as §1, with “Z-017” for “WLS-240”, “mouse” for “human”, “ERS12561816” for “ERS12561773”; conditions: 2 µM
[15] = human gut metagenome, 24 h, 2 µM; remark: listed apart in the source
[16] = as §1, with “WLS-039” for “WLS-240”, “ERS12561746” for “ERS12561773”; conditions: 2 µM
[17] = human gut metagenome, 24 h, 2 µM; remark: listed apart in the source
[18] = human gut metagenome, 24 h, 2 µM; remark: listed apart in the source
[19] = human gut metagenome, 24 h, 2 µM; remark: listed apart in the source
[20] = human gut metagenome, 24 h, 2 µM; remark: listed apart in the source
Further: call rule not given here.

| SMILES | Bacterial Biotransformation [1] | Bacterial Biotransformation [2] | Bacterial Biotransformation [3] | Bacterial Biotransformation [4] | Bacterial Biotransformation [5] | Bacterial Biotransformation [6] | Bacterial Biotransformation [7] | Bacterial Biotransformation [8] | Bacterial Biotransformation [9] | Bacterial Biotransformation [10] | Bacterial Biotransformation [11] | Bacterial Biotransformation [12] | Bacterial Biotransformation [13] | Bacterial Biotransformation [14] | Bacterial Biotransformation [15] | Bacterial Biotransformation [16] | Bacterial Biotransformation [17] | Bacterial Biotransformation [18] | Bacterial Biotransformation [19] | Bacterial Biotransformation [20] |
| --- | --- | --- | --- | --- | --- | --- | --- | --- | --- | --- | --- | --- | --- | --- | --- | --- | --- | --- | --- | --- |
| COC1=CC(=O)C[C@@H](C)[C@]12Oc1c(Cl)c(OC)cc(OC)c1C2=O [GRISEOFULVIN] | Compound metabolized | Compound metabolized | Compound metabolized | Compound metabolized | Compound metabolized | Compound metabolized | Compound metabolized | Compound NOT metabolized | Compound metabolized | Compound metabolized | Compound metabolized | Compound metabolized | Compound NOT metabolized | Compound metabolized | Compound NOT metabolized | Compound metabolized | Compound metabolized | Compound metabolized | Compound NOT metabolized | Compound NOT metabolized |
| N#Cc1ccc(C(c2ccc(C#N)cc2)n2cncn2)cc1 [LETROZOLE] | Compound NOT metabolized | Compound NOT metabolized | Compound NOT metabolized | Compound NOT metabolized | Compound NOT metabolized | Compound NOT metabolized | Compound NOT metabolized | Compound NOT metabolized | Compound NOT metabolized | Compound NOT metabolized | Compound NOT metabolized | Compound NOT metabolized | Compound metabolized | Compound NOT metabolized | Compound NOT metabolized | Compound NOT metabolized | Compound NOT metabolized | Compound NOT metabolized | Compound NOT metabolized | Compound NOT metabolized |
| CC(Oc1c(Cl)cccc1Cl)C1=NCCN1 (stereo not given) [LOFEXIDINE] | Compound metabolized | Compound NOT metabolized | Compound NOT metabolized | Compound NOT metabolized | Compound metabolized | Compound NOT metabolized | Compound metabolized | Compound NOT metabolized | Compound NOT metabolized | Compound NOT metabolized | Compound NOT metabolized | Compound metabolized | Compound NOT metabolized | Compound NOT metabolized | Compound metabolized | Compound NOT metabolized | Compound NOT metabolized | Compound metabolized | Compound NOT metabolized | Compound NOT metabolized |
| CN(C)C(=O)C(CCN1CCC(O)(c2ccc(Cl)cc2)CC1)(c1ccccc1)c1ccccc1 [LOPERAMIDE] | Compound metabolized | Compound metabolized | Compound metabolized | Compound metabolized | Compound metabolized | Compound metabolized | Compound metabolized | Compound metabolized | Compound metabolized | Compound metabolized | Compound metabolized | Compound metabolized | Compound metabolized | Compound NOT metabolized | Compound metabolized | Compound metabolized | Compound metabolized | Compound metabolized | Compound NOT metabolized | Compound metabolized |
| CCCCc1nc(Cl)c(CO)n1Cc1ccc(-c2ccccc2-c2nn[nH]n2)cc1 [LOSARTAN] | Compound metabolized | Compound NOT metabolized | Compound metabolized | Compound metabolized | Compound metabolized | Compound NOT metabolized | Compound metabolized | Compound metabolized | Compound NOT metabolized | Compound NOT metabolized | Compound metabolized | Compound metabolized | Compound metabolized | Compound NOT metabolized | Compound metabolized | Compound NOT metabolized | Compound metabolized | Compound metabolized | Compound NOT metabolized | Compound metabolized |
| COC(=O)Nc1nc2ccc(C(=O)c3ccccc3)cc2[nH]1 [MEBENDAZOLE] | Compound metabolized | Compound metabolized | Compound metabolized | Compound metabolized | Compound metabolized | Compound metabolized | Compound metabolized | Compound NOT metabolized | Compound metabolized | Compound metabolized | Compound metabolized | Compound metabolized | Compound NOT metabolized | Compound NOT metabolized | Compound metabolized | Compound metabolized | Compound metabolized | Compound metabolized | Compound NOT metabolized | Compound metabolized |
| COc1ccccc1OCC(O)COC(N)=O (stereo not given) [METHOCARBAMOL] | Compound NOT metabolized | Compound NOT metabolized | Compound NOT metabolized | Compound NOT metabolized | Compound NOT metabolized | Compound NOT metabolized | Compound NOT metabolized | Compound NOT metabolized | Compound NOT metabolized | Compound NOT metabolized | Compound NOT metabolized | Compound NOT metabolized | Compound NOT metabolized | Compound NOT metabolized | Compound NOT metabolized | Compound NOT metabolized | Compound NOT metabolized | Compound NOT metabolized | Compound NOT metabolized | Compound NOT metabolized |
| CC[C@@H](CO)NC(=O)[C@@H]1C=C2c3cccc4c3c(cn4C)C[C@H]2N(C)C1.O=C(O)/C=C\C(=O)O [METHYSERGIDE MALEATE] | Compound NOT metabolized | Compound NOT metabolized | Compound NOT metabolized | Compound NOT metabolized | Compound NOT metabolized | Compound NOT metabolized | Compound NOT metabolized | Compound NOT metabolized | Compound NOT metabolized | Compound NOT metabolized | Compound NOT metabolized | Compound NOT metabolized | Compound NOT metabolized | Compound NOT metabolized | Compound NOT metabolized | Compound NOT metabolized | Compound NOT metabolized | Compound NOT metabolized | Compound NOT metabolized | Compound NOT metabolized |

Source: ChEMBL document CHEMBL5724914, “Linking interpersonal differences in gut microbiota composition and drug biotransformation activity” (2024)
